Data reported in US20090118282A1, “Compounds and methods for treatment of amyloid-beta-peptide related disorders” (priority 2005, published 2009).
Counter-ions that a name gives are not always drawn.

System: Aβ 40 production in HEK-293 cells overexpressing swAPP751
Test: Inhibition of Aβ 40 production in HEK-293 cells overexpressing swAPP751 (sandwich ELISA)
Type: cell-based
Details: Homo sapiens, HEK293, 7 hours incubation
Protocol: An exemplary assay for the analysis of inhibition of beta-secretase activity utilizes the human embryonic kidney cell line HEK-293 (ATCC Accession No. CRL-1573) stably transfected with APP751 containing the naturally occurring double mutation […] to Asn651Leu652 (numbered for APP751), commonly called the “Swedish mutation” and shown to overproduce Aβ 40 and Aβ 42 (Citron et. al., 1992, Nature 360:672-674). The cells were plated in 10 cm plates and in Dulbecco's Modified Eagle's medium (DMEM, Sigma D-6546) containing 10% fetal bovine serum. After cells are established (3 days post plating), cells are incubated in the presence/absence of the inhibitory compound (diluted in DMSO) at the desired concentration, generally from 0.2 to 20 μM, and with a final concentration of DMSO of 0.1%. Cells were incubated for 7 hours in the presence of phosphoramidon (1 μM) (Sigma). Media and cell lysates were collected, centrifuged, normalized to total protein and assayed for Aβ 40 and Aβ 42 by sandwich ELISA according to the manufacturer's instructions (Biosource International). For Aβ 42 detection, samples are concentrated on YM3 Microcon columns (Millipore). […] Aβ levels are determined by the difference between the Aβ values for the compound treatment and baseline periods. Dose response curves are plotted as percent inhibition versus compound concentration.

SMILES	IC50 [µM]
FC(F)(F)c1ccc2c(SCCCCCOc3ccc(CN4CCCCC4)cc3)ccnc2c1 [Compound 5, 4-(5-(4-((piperidin-1-yl)methyl)phenoxy)pentylthio)-7-(trifluoromethyl)quinoline dihydrochloride]	5.16
OCc1ccc(OCCCCCSc2ccnc3cc(C(F)(F)F)ccc23)cc1 [Compound 12, (4-(5-(7-(trifluoromethyl)quinolin-4-ylthio)pentyloxy)phenyl)methanol hydrochloride]	7.3
CC(C)(C)C(=O)N1CCN(Cc2ccc(OCCCCCSc3ccnc4cc(C(F)(F)F)ccc34)cc2)CC1 [Compound 3, 1-(4-((4-(5-(7-(trifluoromethyl)quinolin-4-ylthio)pentyloxy)phenyl)methyl)piperazin-1-yl)-2,2-dimethylpropan-1-one dihydrochloride]	1.9
CCn1ncc2c(OCCCCCSc3ccnc4cc(C(F)(F)F)ccc34)ccnc21 [Compound 19, 4-(5-(1-Ethyl-1H-pyrazolo[3,4-b]pyridin-4-yloxy)pentylthio)-7-(trifluoromethyl)quinoline dihydrochloride]	15.5
Clc1ccc2c(OCCCCCOc3ccc(CN4CCOCC4)cc3)ccnc2c1 [Compound 23, 4-(5-(4-(morpholinomethyl)phenoxy)pentyloxy)-7-chloroquinoline dihydrochloride]	2.5
CCN(CC)C(=O)N1CCN(Cc2ccc(OCCCCCSc3ccnc4cc(C(F)(F)F)ccc34)cc2)CC1 [Compound 2, 4-((4-(5-(7-(trifluoromethyl)quinolin-4-ylthio)pentyloxy)phenyl)methyl)-N,N-diethylpiperazine-1-carboxamide dihydrochloride]	2.4
FC(F)(F)c1ccc2c(SCCCCCOc3ccc(CN4CCOCC4)cc3)ccnc2c1 [Compound 8, 4-(5-(4-(morpholinomethyl)phenoxy)pentylthio)-7-(trifluoromethyl)quinoline dihydrochloride]	5.13
Nc1cc(CN2CCCCC2)ccc1OCCCCCSc1ccnc2cc(C(F)(F)F)ccc12 [Compound 13, 2-(5-(7-(Trifluoromethyl)quinolin-4-ylthio)pentyloxy)-5-((piperidin-1-yl)methyl)benzenamine trihydrochloride]	8.26
CCOC(=O)[C@H](Cc1ccc(OCCCCCSc2ccnc3cc(C(F)(F)F)ccc23)cc1)NC(C)=O [Compound 14, (S)-ethyl 3-(4-(5-(7-(trifluoromethyl)quinolin-4-ylthio)pentyloxy)phenyl)-2-acetamidopropanoate hydrochloride]	0.72
FC(F)(F)c1ccc2c(SCCCCCOc3ccc(CN4CCCCC4)cc3Cl)ccnc2c1 [Compound 10, 4-(5-(2-Chloro-4-((piperidin-1-yl)methyl)phenoxy)pentylthio)-7-(trifluoromethyl)quinoline dihydrochloride]	8.5
COc1cc(CN2CCOCC2)ccc1OCCCCCOc1ccnc2cc(Cl)ccc12 [Compound 22, 4-(5-(2-Methoxy-4-(morpholinomethyl)phenoxy)pentyloxy)-7-chloroquinoline dihydrochloride]	9.3
FC(F)(F)c1ccc2c(SCCCCCOc3ccc(CN4CCNCC4)cc3)ccnc2c1 [Compound 1, 4-(5-(4-((piperazin-1-yl)methyl)phenoxy)pentylthio)-7-(trifluoromethyl)quinoline trihydrochloride]	11.6
O=[N+]([O-])c1cc(CN2CCCCC2)ccc1OCCCCCSc1ccnc2cc(C(F)(F)F)ccc12 [Compound 11, 4-(5-(2-nitro-4-((piperidin-1-yl)methyl)phenoxy)pentylthio)-7-(trifluoromethyl)quinoline dihydrochloride]	2.45
COc1cc(CN2CCOCC2)ccc1OCCCCCSc1ccnc2cc(C(F)(F)F)ccc12 [Compound 24, 4-(5-(2-methoxy-4-(morpholinomethyl)phenoxy)pentylthio)-7-(trifluoromethyl)quinoline dihydrochloride]	9.9
